US12613234B2, “Structural-profiling of analytes by nanopore trapping” (NANJING UNIVERSITY, priority 2021, dated 2026)
Values joined by “and” are separate entries in the source; they are usually repeats but may differ in a detail not shown here. Identical values can stand only once. Like-named read-outs stand apart in the source and are kept apart here.

Tests used:
wtCaM = wtCaM (Homo sapiens, UniProt P0DP23); assay: Binding capacity of metal ions to wtCaM monitored by MspA nanopore trapping
M2 MspA = tested on: M2 MspA; design: species or system Mycobacterium smegmatis; settings: for mean dwell time (τoff), mean ± std / mean interevent duration time (τon), mean ± std: N=3
[1] = […] KCl/1.0M CaCl2, +100 mV, listed as LYSOZYME
[2] = […] KCl/[…] KCl, +100 mV, listed as LYSOZYME
[3] = […] KCl/[…] KCl, +100 mV, listed as APO-MYOGLOBIN

[Tb+3] [Tb^3+]
ion concentration that fully activates apo-wtCaM (wtCaM; 0.3 μM apo-wtCaM): 5 µM
concentration regime in which Tb-wtCaM events were observed (wtCaM; 0.3 μM wtCaM): 0.05 to 120 µM
concentration regime in which the pre-aggregated state was observed (wtCaM; 0.3 μM wtCaM): 15 to 200 µM
ion concentration with complete disappearance of events (aggregation of wtCaM) (wtCaM; 0.3 μM wtCaM): 500 µM
binding capacity to wtCaM, in words (wtCaM; nanopore trapping): stronger than that of Ca^2+

lysozyme: lysozyme from chicken egg white, representative basic protein
1/τon (M2 MspA; +60 mV, […] KCl/1.0M CaCl2): (1.0 ± 0.2) × 10^−2 MS^−1
τoff (M2 MspA; +60 mV, […] KCl/1.0M CaCl2): 35.5 ± 0.9 MS
1/τon (M2 MspA; +80 mV, […] KCl/1.0M CaCl2): (1.4 ± 0.4) × 10^−2 MS^−1
τoff (M2 MspA; +80 mV, […] KCl/1.0M CaCl2): 47.8 ± 6.7 MS
1/τon (M2 MspA; +100 mV, […] KCl/1.0M CaCl2): (1.8 ± 0.2) × 10^−2 MS^−1
τoff (M2 MspA; +100 mV, […] KCl/1.0M CaCl2): 47.3 ± 3.5 MS
1/τon (M2 MspA; +120 mV, […] KCl/1.0M CaCl2): (1.8 ± 0.3) × 10^−2 MS^−1
τoff (M2 MspA; +120 mV, […] KCl/1.0M CaCl2): 38.8 ± 8.9 MS
mean dwell time (τoff), mean ± std (M2 MspA; […] KCl/1.0M CaCl2, +100 mV): 47.3±3.5 MS
mean interevent duration time (τon), mean ± std (M2 MspA; […] KCl/1.0M CaCl2, +100 mV): 38.0±11.0 MS
mean dwell time (τoff), mean ± std (M2 MspA; [1]): 47.3 ± 3.5 MS
mean interevent duration time (τon), mean ± std (M2 MspA; [1]): 38.0 ± 11.0 MS
mean dwell time (τoff), mean ± std (M2 MspA; […] KCl/[…] KCl, +100 mV): 5.4±0.2 MS
mean interevent duration time (τon), mean ± std (M2 MspA; […] KCl/[…] KCl, +100 mV): 460.7±51.2 MS
mean dwell time (τoff), mean ± std (M2 MspA; [2]): 5.4 ± 0.2 MS
mean interevent duration time (τon), mean ± std (M2 MspA; [2]): 460.7 ± 51.2 MS
1/τon (M2 MspA; concentration 0.21 (MM), +100 mV): (6.4 ± 2.6) × 10^−3 MS^−1
1/τon (M2 MspA; concentration 0.42 (MM), +100 mV): (2.8 ± 0.8) × 10^−2 MS^−1
1/τon (M2 MspA; concentration 0.63 (MM), +100 mV): (4.2 ± 1.2) × 10^−2 MS^−1
1/τon (M2 MspA; concentration 0.83 (MM), +100 mV): (5.5 ± 0.7) × 10^−2 MS^−1

[Pb+2] [Pb^2+]
Proportion of Holo-wtCaM events (binding capacity) (wtCaM): 62.0±3.1%
Proportion of Transient States events (wtCaM): 38.0 ± 3.1%
binding capacity to wtCaM, in words (wtCaM): even stronger than that of Ca^2+
ΔI/I0 of Holo-wtCaM events (wtCaM): 90.6 ± 0.7%
ΔI/I0 of Transient States events (wtCaM): 77.91 ± 0.13%

[Sr+2] [Sr^2+]
Proportion of Apo-wtCaM events (wtCaM; 2 mM ion, 0.6 μM wtCaM): 73.1 ± 1.4%
Proportion of Holo-wtCaM events (binding capacity) (wtCaM; 2 mM ion, 0.6 μM wtCaM): 14.0±2.4%
Proportion of Transient States events (wtCaM; 2 mM ion, 0.6 μM wtCaM): 12.6 ± 0.4%
ΔI/I0 of Apo-wtCaM events (wtCaM; 2 mM ion, 0.6 μM wtCaM): 54.0 ± 0.5%
ΔI/I0 of Holo-wtCaM events (wtCaM; 2 mM ion, 0.6 μM wtCaM): 90.22 ± 0.16%
ΔI/I0 of Transient States events (wtCaM; 2 mM ion, 0.6 μM wtCaM): 75.7 ± 1.5%
binding capacity to wtCaM, in words (wtCaM; nanopore trapping): slightly better binding capacity to wtCaM than that of Mg^2+ or Ba^2+

[Ba+2] [Ba^2+]
Proportion of Apo-wtCaM events (wtCaM): 95.6 ± 2.9%
Proportion of Holo-wtCaM events (binding capacity) (wtCaM): 4.4% and 4.4 ± 2.9%
binding capacity to wtCaM, in words (wtCaM): poor binding capacity
ΔI/I0 of Apo-wtCaM events (wtCaM): 51.6 ± 0.6%
ΔI/I0 of Holo-wtCaM events (wtCaM): 86.9 ± 1.0%

[Ca+2] [Ca^2+]
ion concentration that fully activates wtCaM (wtCaM; 0.3 μM wtCaM): 0.6 mM
Proportion of Apo-wtCaM events (wtCaM; 2 mM ion, 0.6 μM wtCaM): 21.2 ± 3.1%
Proportion of Holo-wtCaM events (binding capacity) (wtCaM; 2 mM ion, 0.6 μM wtCaM): 54% and 54.1 ± 4.8%
Proportion of Transient States events (wtCaM; 2 mM ion, 0.6 μM wtCaM): 24.8 ± 2.7%
ΔI/I0 of Apo-wtCaM events (wtCaM; 2 mM ion, 0.6 μM wtCaM): 56.8±1.1%
ΔI/I0 of Holo-wtCaM events (wtCaM; 2 mM ion, 0.6 μM wtCaM): 90.4±0.2%
ΔI/I0 of Transient States events (wtCaM; 2 mM ion, 0.6 μM wtCaM): 75.0±2.1%
binding capacity to wtCaM, in words (wtCaM; nanopore trapping): strong binding affinity

[Mg+2] [Mg^2+]
Proportion of Apo-wtCaM events (wtCaM; 2 mM ion, 0.6 μM wtCaM): 96.0 ± 1.7%
Proportion of Holo-wtCaM events (binding capacity) (wtCaM; 2 mM ion, 0.6 μM wtCaM): 4.0% and 4.0 ± 1.7%
ΔI/I0 of Apo-wtCaM events (wtCaM; 2 mM ion, 0.6 μM wtCaM): 52.6 ± 0.4%
ΔI/I0 of Holo-wtCaM events (wtCaM; 2 mM ion, 0.6 μM wtCaM): 88.8 ± 1.1%
binding capacity to wtCaM, in words (wtCaM; nanopore trapping): poor binding capacity

B1: apo-myoglobin: heme-free myoglobin from equine skeletal muscle (protein, UniProt P68082 2-154, looked up)
Myoglobin: GLSDGEWQQVLNVWGKVEADIAGHGQEVLIRLFTGHPETLEKFDKFKHLKTEAEMKASEDLKKHGTVVLTALGGILKKKGHHEAELKPLAQSHATKHKIPIKYLEFISDAIIHVLHSKHPGDFGADAQGAMTKALELFRNDIAAKYKELGFQG
modifications: heme-free apo form
notes: heme-free myoglobin from equine skeletal muscle
1/τon (M2 MspA; +60 mV, […] KCl/1.0M CaCl2): (1.0 ± 0.3) × 10^−3 MS^−1
τoff (M2 MspA; +60 mV, […] KCl/1.0M CaCl2): 99.3 ± 20.2 MS
1/τon (M2 MspA; +80 mV, […] KCl/1.0M CaCl2): (2.0 ± 0.5) × 10^−3 MS^−1
τoff (M2 MspA; +80 mV, […] KCl/1.0M CaCl2): 317.5 ± 18.3 MS
1/τon (M2 MspA; +100 mV, […] KCl/1.0M CaCl2): (2.8 ± 0.3) × 10^−3 MS^−1
τoff (M2 MspA; +100 mV, […] KCl/1.0M CaCl2): 531.0 ± 27.5 MS
1/τon (M2 MspA; +120 mV, […] KCl/1.0M CaCl2): (4.5 ± 0.6) × 10^−3 MS^−1
τoff (M2 MspA; +120 mV, […] KCl/1.0M CaCl2): 522.0 ± 15.0 MS
mean dwell time (τoff), mean ± std (M2 MspA; […] KCl/1.0M CaCl2, +100 mV): 531.0±27.5 MS
mean interevent duration time (τon), mean ± std (M2 MspA; […] KCl/1.0M CaCl2, +100 mV): 365.1 ± 27.9 MS
mean dwell time (τoff), mean ± std (M2 MspA; […] KCl/1.0M CaCl2, +100 mV, listed as APO-MYOGLOBIN): 531.0 ± 27.5 MS
mean dwell time (τoff), mean ± std (M2 MspA; […] KCl/[…] KCl, +100 mV): 7.3±1.3 MS
mean dwell time (τoff), mean ± std (M2 MspA; [3]): 7.3 ± 1.3 MS
mean interevent duration time (τon), mean ± std (M2 MspA; [3]): 3640.4 ± 633.6 MS
1/τon (M2 MspA; concentration 0.04 (MM), +100 mV): (4.4 ± 0.5) × 10^−4 MS^−1
1/τon (M2 MspA; concentration 0.07 (MM), +100 mV): (9.9 ± 0.9) × 10^−3 MS^−1
1/τon (M2 MspA; concentration 0.11 (MM), +100 mV): (2.1 ± 0.2) × 10^−3 MS^−1
1/τon (M2 MspA; concentration 0.14 (MM), +100 mV): (2.8 ± 0.2) × 10^−3 MS^−1
